Laboratory results reported in patent US12018023B2 (NERVIANO MEDICAL SCIENCES S.R.L., priority 2018, dated 2024).

Assays:
[1] = target: T1, IDH1^R132H homodimer enzyme (Homo sapiens, UniProt O75874, R132H); experiment: NADPH depletion assay, IDH1 R132H; type: biochemical
T1 construct: purchased not specified
Outline: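 IDH1 R132H enzyme (8 nM as diluted) in Tris-HCl pH 7.6 with 10 mM MgCl2, 0.001% Triton X-100 and 4 mM β-mercaptoethanol is preincubated 15 min at RT with compound. Substrate mix (12 uM NADPH, 3.4 mM α-ketoglutarate) is added for 60 min; remaining NAD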

HT-1080 (IDH1^R132C) = experiment: Cellular 2-HG production assay, HT-1080; type: cell-based; details: Homo sapiens, HT-1080, 72 h, inhibition of 2HG production, 72 hr incubation, LC-MS/MS; read-out: HT1080 2-HG IC50
Outline: (§1)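 Cells in E-MEM/10% FCS (G418 500 μg/mL for the transfected U87-MG line) at 500 per well got compound 24 h after seeding and were incubated 72 h at 37 °C. Medium 2-HG was measured by LC-MS/MS with 2-HG-d3 internal standard; IC50 came from sigmoidal fitting versus controls.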

U87MG_IDH1R132H = experiment: Cellular 2-HG production assay, U87-MG-IDH1 R132H; type: cell-based; details: inhibition of 2HG production, 72 hr incubation, LC-MS/MS
Outline: as §1

IDH1^R132C = target: T2, IDH1^R132C (Homo sapiens, UniProt O75874, R132C); experiment: NADPH depletion assay, IDH1 R132C; type: biochemical
T2 construct: purchased not specified
T2 sequence (O75874 whole entry R132C): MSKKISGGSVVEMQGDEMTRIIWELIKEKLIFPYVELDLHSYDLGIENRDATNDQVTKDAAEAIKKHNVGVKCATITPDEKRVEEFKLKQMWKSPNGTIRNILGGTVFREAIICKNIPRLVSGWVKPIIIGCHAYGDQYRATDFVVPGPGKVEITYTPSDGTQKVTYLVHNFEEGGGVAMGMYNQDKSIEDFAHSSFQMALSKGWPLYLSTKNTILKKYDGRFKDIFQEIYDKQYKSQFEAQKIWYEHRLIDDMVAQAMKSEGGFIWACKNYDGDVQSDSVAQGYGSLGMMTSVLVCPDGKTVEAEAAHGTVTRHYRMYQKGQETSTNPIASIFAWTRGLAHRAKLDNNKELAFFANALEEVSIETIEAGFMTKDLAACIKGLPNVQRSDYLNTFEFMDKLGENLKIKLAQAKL
Outline: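 Fluorescence readout (Ex544/Em590) of NADPH left after diaphorase/resazurin addition. Alpha-ketoglutarate 0.14 mM final, enzyme 2 nM final; compound preincubation 15 min, then 60 min reaction, both at room temperature, pH 7.6 Tris buffer.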

IDH2^R172K = target: T3, IDH2^R172K (Homo sapiens, UniProt P48735, R172K); experiment: NADPH depletion assay, IDH2 R172K; type: biochemical
T3 construct: purchased not specified
T3 sequence (P48735 40-452 R172K): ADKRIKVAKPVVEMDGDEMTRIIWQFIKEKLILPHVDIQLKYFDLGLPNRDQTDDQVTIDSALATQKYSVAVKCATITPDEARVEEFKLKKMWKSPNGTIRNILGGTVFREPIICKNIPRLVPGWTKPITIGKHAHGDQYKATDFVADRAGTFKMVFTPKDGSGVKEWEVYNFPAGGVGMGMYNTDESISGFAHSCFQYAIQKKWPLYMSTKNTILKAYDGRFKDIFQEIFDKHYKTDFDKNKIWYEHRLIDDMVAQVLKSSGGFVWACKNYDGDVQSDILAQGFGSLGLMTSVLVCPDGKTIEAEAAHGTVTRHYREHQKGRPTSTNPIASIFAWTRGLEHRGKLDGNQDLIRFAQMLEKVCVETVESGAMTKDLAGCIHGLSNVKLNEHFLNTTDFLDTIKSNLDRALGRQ
Outline: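 This NADPH depletion assay measures NADPH left after conversion of alpha-ketoglutarate (0.55 mM final) by 16 nM IDH2 R172K over 60 min at room temperature, after a 15 min compound preincubation in pH 7.6 Tris buffer. Substrate mix held 12 μM NADPH. Diaphorase/resazurin gave the fluorescence read-out at 544/590 nm.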

IDH1WT enzyme = target: T4, IDH1WT enzyme (Homo sapiens, UniProt O75874); experiment: Enzymatic assay for IDH1 wild-type (NADPH forming assay); type: biochemical
T4 construct: purchased not specified
T4 sequence (O75874 whole entry): as the sequence (O75874 whole entry R132C) above, with C132R counted along it
Protocol: IDH1WT enzymatic activity converting isocitric acid to alpha-ketoglutarate is measured using a NADPH forming assay. In the assay the forming cofactor is measured in continuous with the addition of a catalytic excess of diaphorase and resazurin, to generate a fluorescent signal in proportion to the amount of NADPH forming.
Compounds were preincubated with the enzyme, then the reaction was started by the addition of NADP^+, isocitrate, diaphorase and a corresponding substrate, resazurin. Diaphorase reduces resazurin to the highly fluorescent resorufin with the concomitant oxidation of NADPH to NADP. Specifically, 0.2 uL of test compound, previously serially diluted 1 to 3, 10 experimental points from 1 mM in DMSO, was added to 0.016 nM IDH1WT enzyme in 10 μL of Assay Buffer (150 mM NaCl, 50 mM Tris-HCl pH 7.6, 10 mM MgCl2, 0.001% Triton X-100, 4 mM β-mercaptoethanol); the mixture is incubated for 15 minutes at room temperature. The reaction is started with the addition of 10 μL of Substrate Mix (400 μM NADP^+, 40 μM iso-citrate, 5 ugr/mL Diaphorase and 7 μM resazurin in Assay Buffer), the mixture is incubated at room temperature and the reaction is reading on a ViewLux as platereader at Ex544/Em590 in continuous.

T1 sequence (O75874 whole entry R132H): as the sequence (O75874 whole entry R132C) above, with C132H counted along it

## C=CC(=O)N1CCN(C(CC)c2ccc([C@@H](C)Nc3ncc4ccc(=O)n(C(C)C)c4n3)cc2)CC1 (stereo in doubt) [cpd 229, 2-{[(1R)-1-{4-[(1R)-1-(4-acryloylpiperazin-1-yl)propyl]phenyl}ethyl]amino}-8-(propan-2-yl)pyrido[2,3-d]pyrimidin-7(8H)-one]
[1]
  IC50: 83 nM
HT-1080 (IDH1^R132C)
  IC50: 20 nM
U87MG_IDH1R132H
  IC50: 13 nM
IDH1^R132C
  IC50: 44 nM
IDH2^R172K
  IC50: 386 nM
IDH1WT enzyme
  IC50: 839 nM

## CC(C)[C@H](C)n1c(=O)ccc2cnc(N[C@@H](C)c3ccc(CN4CCC(F)(F)CC4)c(F)c3)nc21 [cpd 67, 2-{[(1S)-1-{4-[(4,4-difluoropiperidin-1-yl)methyl]-3-fluorophenyl}ethyl]amino}-8-[(2S)-3-methylbutan-2-yl]pyrido[2,3-d]pyrimidin-7(8H)-one]
[1]
  IC50: 37 nM
HT-1080 (IDH1^R132C)
  IC50: 67 nM
U87MG_IDH1R132H
  IC50: 200 nM
IDH1^R132C
  IC50: 15 nM
IDH2^R172K
  IC50: 7360 nM
IDH1WT enzyme
  IC50: 1710 nM

## C[C@H](Nc1ncc2ccc(=O)n(CC(C)(C)C)c2n1)c1ccc(CN2CCC(F)(F)CC2)c(F)c1 [cpd 94, 2-{[(1S)-1-{4-[(4,4-difluoropiperidin-1-yl)methyl]-3-fluorophenyl}ethyl]amino}-8-(2,2-dimethylpropyl) pyrido[2,3-d]pyrimidin-7(8H)-one]
[1]
  IC50: 71 nM
HT-1080 (IDH1^R132C)
  IC50: 203 nM
U87MG_IDH1R132H
  IC50: 370 nM
IDH1^R132C
  IC50: 30 nM
IDH2^R172K
  IC50: 5570 nM
IDH1WT enzyme
  IC50: 1330 nM

## C[C@H](Nc1ncc2ccc(=O)n(CC(C)(C)C)c2n1)c1ccc(CN2CCC(F)(F)CC2)cc1 [cpd 105, 2-{[(1S)-1-{4-[(4,4-difluoropiperidin-1-yl)methyl]phenyl)ethyl]amino)-8-(2,2-dimethylpropyl)pyrido[2,3-d]pyrimidin-7(8H)-one]
[1]
  IC50: 105 nM
HT-1080 (IDH1^R132C)
  IC50: 116 nM
U87MG_IDH1R132H
  IC50: 417 nM
IDH1^R132C
  IC50: 55 nM
IDH2^R172K
  IC50: 4730 nM
IDH1WT enzyme
  IC50: 2040 nM

## C[C@H](Nc1ncc2ccc(=O)n(CC(C)(C)C)c2n1)c1ccc(CN2CCCC(F)(F)C2)cc1 [cpd 117, 2-{[(1S)-1-{4-[(3,3-difluoropiperidin-1-yl)methyl]phenyl}ethyl]amino}-8-(2,2-dimethylpropyl)pyrido[2,3-d]pyrimidin-7(8H)-one]
[1]
  IC50: 55 nM
HT-1080 (IDH1^R132C)
  IC50: 155 nM
U87MG_IDH1R132H
  IC50: 177 nM
IDH1^R132C
  IC50: 29 nM
IDH2^R172K
  IC50: 5510 nM
IDH1WT enzyme
  IC50: 1580 nM

## C=CC(=O)N1CCN(Cc2ccc([C@H](C)Nc3ncc4ccc(=O)n(CC(C)(C)C)c4n3)cc2)CC1 [cpd 139, 2-{(S)-1-[4-(4-Acryloyl-piperazin-1-ylmethyl)-phenyl]-ethylamino}-8-(2,2-dimethyl-propyl)-8H-pyrido[2,3-d]pyrimidin-7-one]
[1]
  IC50: 42 nM
HT-1080 (IDH1^R132C)
  IC50: 22 nM
U87MG_IDH1R132H
  IC50: 8 nM
IDH1^R132C
  IC50: 21 nM
IDH2^R172K
  IC50: 264 nM
IDH1WT enzyme
  IC50: 720 nM

## C=CC(=O)N1CCN(Cc2ccc([C@H](C)Nc3ncc4ccc(=O)n(CC(C)(C)CO)c4n3)cc2)CC1 [cpd 140, 2-{(S)-1-[4-(4-Acryloyl-piperazin-1-ylmethyl)-phenyl]-ethylamino}-8-(3-hydroxy-2,2-dimethyl-propyl)-8H-pyrido [2,3-d]pyrimidin-7-one]
[1]
  IC50: 249 nM
HT-1080 (IDH1^R132C)
  IC50: 108 nM
U87MG_IDH1R132H
  IC50: 10 nM
IDH1^R132C
  IC50: 115 nM
IDH2^R172K
  IC50: 3230 nM
IDH1WT enzyme
  IC50: 4850 nM

## C=CC(=O)N1CCN(Cc2ccc([C@H](C)Nc3ncc4ccc(=O)n(CC(C)(C)C)c4n3)cc2F)CC1 [cpd 141, 2-{[(1S)-1-{4-[(4-acryloylpiperazin-1-yl)methyl]-3-fluorophenyl}ethyl]amino}-8-(2,2-dimethylpropyl)pyrido[2,3-d] pyrimidin-7(8H)-one]
[1]
  IC50: 38 nM
U87MG_IDH1R132H
  IC50: 24 nM
IDH1^R132C
  IC50: 31 nM
IDH2^R172K
  IC50: 213 nM
IDH1WT enzyme
  IC50: 1820 nM

## C=CC(=O)N1CCC(Oc2ccc([C@H](C)Nc3ncc4ccc(=O)n(CC(C)(C)C)c4n3)cc2)CC1 [cpd 156, 2-{(S)-1-[4-(1-Acryloyl-piperidin-4-yloxy)-phenyl]-ethylamino}-8-(2,2-dimethyl-propyl)-8H-pyrido[2,3-d]pyrimidin-7-one]
[1]
  IC50: 139 nM
U87MG_IDH1R132H
  IC50: 289 nM
IDH1^R132C
  IC50: 91 nM
IDH2^R172K
  IC50: 476 nM
IDH1WT enzyme
  IC50: 2540 nM

## C=CC(=O)N1CCC(Oc2ccc([C@H](C)Nc3ncc4ccc(=O)n([C@@H](C)C(C)C)c4n3)cc2)CC1 [cpd 159, 2-{(S)-1-[4-(1-Acryloyl-piperidin-4-yloxy)-phenyl]-ethylamino}-8-((S)-1,2-dimethyl-propyl)-8H-pyrido[2,3-d]pyrimidin-7-one]
[1]
  IC50: 77 nM
U87MG_IDH1R132H
  IC50: 81 nM
IDH1^R132C
  IC50: 37 nM
IDH2^R172K
  IC50: 510 nM
IDH1WT enzyme
  IC50: 1730 nM

## C=CC(=O)N1CCN(c2ccc([C@H](C)Nc3ncc4ccc(=O)n([C@@H](C)C(C)C)c4n3)cc2)CC1 [cpd 175, 2-({(1S)-1-[4-(4-acryloylpiperazin-1-yl)phenyl]ethyl}amino)-8-[(2S)-3-methylbutan-2-yl]pyrido[2,3-d]pyrimidin-7(8H)-one]
[1]
  IC50: 65 nM
U87MG_IDH1R132H
  IC50: 21 nM
IDH1^R132C
  IC50: 66 nM
IDH2^R172K
  IC50: 442 nM
IDH1WT enzyme
  IC50: 1170 nM

## C=CC(=O)N1CCN(C(CC2CC2)c2ccc([C@H](C)Nc3ncc4ccc(=O)n(CC)c4n3)cc2)CC1 (stereo partly drawn) [cpd 219, 2-{[(1S)-1-{4-[1-(4-acryloylpiperazin-1-yl)-2-cyclopropylethyl]phenyl}ethyl]amino}-8-ethylpyrido[2,3-d]pyrimidin-7(8H)-one]
[1]
  IC50: 1 nM
HT-1080 (IDH1^R132C)
  IC50: 0.4 nM
U87MG_IDH1R132H
  IC50: 0.4 nM
IDH1^R132C
  IC50: 1 nM
IDH2^R172K
  IC50: 6 nM
IDH1WT enzyme
  IC50: 52 nM

## C=CC(=O)N1CCN(C(CC2CC2)c2ccc([C@H](C)Nc3ncc4ccc(=O)n(C(C)C)c4n3)cc2)CC1 (stereo partly drawn) [cpd 220, 2-{[(1S)-1-{4-[1-(4-acryloylpiperazin-1-yl)-2-cyclopropylethyl]phenyl}ethyl]amino}-8-(propan-2-yl)pyrido[2,3-d]pyrimidin-7(8H)-one]
[1]
  IC50: 1 nM
HT-1080 (IDH1^R132C)
  IC50: 0.3 nM
U87MG_IDH1R132H
  IC50: 0.5 nM
IDH1^R132C
  IC50: 1 nM
IDH2^R172K
  IC50: 15 nM
IDH1WT enzyme
  IC50: 53 nM

## C=CC(=O)N1CCN([C@@H](CC)c2ccc([C@H](C)Nc3ncc4ccc(=O)n(C(C)C)c4n3)cc2)CC1 [cpd 227, 2-{[(1S)-1-{4-[(1S)-1-(4-acryloylpiperazin-1-yl)propyl]phenyl}ethyl]amino}-8-(propan-2-yl)pyrido[2,3-d]pyrimidin-7(8H)-one]
[1]
  IC50: 7 nM
HT-1080 (IDH1^R132C)
  IC50: 1.4 nM
U87MG_IDH1R132H
  IC50: 0.4 nM
IDH1^R132C
  IC50: 5 nM
IDH2^R172K
  IC50: 49 nM
IDH1WT enzyme
  IC50: 109 nM

## C=CC(=O)N1CCN(C(CC2CC2)c2ccc(C3(Nc4ncc5ccc(=O)n(C(C)C)c5n4)CC3)cc2)CC1 (stereo not drawn) [cpd 244, 2-[(1-{4-[1-(4-acryloylpiperazin-1-yl)-2-cyclopropylethyl]phenyl}cyclopropyl)amino]-8-(propan-2-yl)pyrido[2,3-d]pyrimidin-7(8H)-one]
[1]
  IC50: 2 nM
HT-1080 (IDH1^R132C)
  IC50: 1.6 nM
IDH1^R132C
  IC50: 3 nM
IDH2^R172K
  IC50: 21 nM
IDH1WT enzyme
  IC50: 220 nM

## C=CC(=O)N1CCN(C(CC)c2ccc(C3(Nc4ncc5ccc(=O)n(C(C)C)c5n4)CC3)cc2)CC1 (stereo not drawn) [cpd 247, 2-[(1-{4-[1-(4-acryloylpiperazin-1-yl)propyl]phenyl}cyclopropyl)amino]-8-(propan-2-yl)pyrido[2,3-d]pyrimidin-7(8H)-one]
[1]
  IC50: 5 nM
HT-1080 (IDH1^R132C)
  IC50: 3 nM
IDH1^R132C
  IC50: 4 nM
IDH2^R172K
  IC50: 35 nM
IDH1WT enzyme
  IC50: 215 nM
